Reference: patent US10774064B2 (Cadent Therapeutics, Inc., priority 2016, dated 2020)

The compounds below were run against T1, small-conductance Ca2+-activated K+ channels (SK channels, subtype 2) (Homo sapiens, UniProt Q9H2S1) (assay: whole-cell patch-clamp of ionic current through SK2 channels in HEK293 cells (SC100)). Settings: whole-cell patch-clamp, HEK293 cells expressing SK2 channels; concentration that increases the basal current by 100%.
T1 construct: expressed in transfected cells; host or cells: HEK293
Type: cell-based
Summary of the method: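 Whole-cell patch-clamp recording of current in HEK293 cells expressing SK2 channels. SC100 is the compound concentration that increases basal current by 100%.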
For `Cc1csc(-c2nc(NC3CCC(F)(F)CC3)cc(N3CCCOCC3)n2)n1` [IN10864-034.P1], the “SC100 (μM)” value was “+++ (+++ means <200 nM)”. `Cc1csc(-c2nc(NC3CCC(F)(F)CC3)cc(N3CCOC(C)(C)C3)n2)n1` [IN10864-043-P1] was tested, and the “SC100 (μM)” value was “+++ (+++ means <200 nM)”. In the case of `COCC1CN(c2cc(NC3CCC(F)(F)CC3)nc(-c3nc(C)cs3)n2)CCN1C` (centres unmarked) [IN10864-060-P1], the “SC100 (μM)” value was “+++ (+++ means <200 nM)”. With `Cc1csc(-c2nc(NC3CCC(F)(F)CC3)cc(N3CCN(C)C(CO)C3)n2)n1` (centres unmarked) [IN10864-066-P1] the “SC100 (μM)” value was “++ (++ means 200 nM-1000 nM)”. In the case of `COC1CCCN(c2cc(NC3CCC(F)(F)CC3)nc(-c3nc(C)cs3)n2)C1` (centres unmarked) [IN10876-013-P1], the “SC100 (μM)” value was “++ (++ means 200 nM-1000 nM)”. For `CC(=O)c1cc(NC2CCC(F)(F)CC2)nc(-n2ccc(C)n2)n1` [IN10876-041-P2], the “SC100 (μM)” value was “+ (+ means >1 uM)”. In the case of `Cc1ccn(-c2nc(NC3CCC(F)(F)CC3)cc(C(C)O)n2)n1` (centres unmarked) [IN10876-051-P1], the “SC100 (μM)” value was “+ (+ means >1 uM)”. In the case of `CCOC(C)c1cc(NC2CCC(F)(F)CC2)nc(-n2ccc(C)n2)n1` (centres unmarked) [IN10876-061-P1, N-(4,4-difluorocyclohexyl)-6-(1-ethoxyethyl)-2-(3-methyl-1H-pyrazol-1-yl)pyrimidin-4-amine], the “SC100 (μM)” value was “+ (+ means >1 uM)”. `Cc1ccn(-c2nc(NC3CCC(F)(F)CC3)cc(C(C)(F)F)n2)n1` [IN10876-069-P1, N-(4,4-difluorocyclohexyl)-6-(1,1-difluoroethyl)-2-(3-methyl-1H-pyrazol-1-yl)pyrimidin-4-amine] was tested, and the “SC100 (μM)” value was “+ (+ means >1 uM)”. For `Cc1ccn(-c2nc(NC3CCC(F)(F)CC3)cc(C(C)F)n2)n1` (centres unmarked) [IN10876-080-P1, N-(4,4-difluorocyclohexyl)-6-(1-fluoroethyl)-2-(3-methyl-1H-pyrazol-1-yl)pyrimidin-4-amine], the “SC100 (μM)” value was “+ (+ means >1 uM)”. `Cc1csc(-c2nc(NC3CCC(F)(F)CC3)cc(C(C)(F)F)n2)n1` [IN10876-082-P1, N-(4,4-difluorocyclohexyl)-6-(1,1-difluoroethyl)-2-(4-methylthiazol-2-yl)pyrimidin-4-amine] was tested, and the “SC100 (μM)” value was “+ (+ means >1 uM)”. For `Cc1csc(-c2nc(NC3CCC(F)(F)CC3)cc(C(C)F)n2)n1` (centres unmarked) [IN10876-092-P1, N-(4,4-difluorocyclohexyl)-6-(1-fluoroethyl)-2-(4-methylthiazol-2-yl)pyrimidin-4-amine], the “SC100 (μM)” value was “++ (++ means 200 nM-1000 nM)”. For `Cc1csc(-c2nc(NC3CCC(F)(F)CC3)cc(N3CCN(C)CC3)n2)n1` [IN10880-014-P1], the “SC100 (μM)” value was “++ (++ means 200 nM-1000 nM)”. For `CCC1CN(c2cc(NC3CCC(F)(F)CC3)nc(-c3nc(C)cs3)n2)CCO1` (centres unmarked) [IN10880-018-P1], the “SC100 (μM)” value was “++ (++ means 200 nM-1000 nM)”. `Cc1csc(-c2nc(C#N)cc(NC3CCC(F)(F)CC3)n2)n1` [IN10880-029-P1] was tested, and the “SC100 (μM)” value was “+ (+ means >1 uM)”. For `CC(=O)NC1CCN(c2cc(NC3CCC(F)(F)CC3)nc(-c3nc(C)cs3)n2)CC1` [IN10880-032-P1], the “SC100 (μM)” value was “++ (++ means 200 nM-1000 nM)”. For `Cc1csc(-c2nc(NC3CCC(F)(F)CC3)cc(N3CCOC(CNC(=O)OC(C)(C)C)C3)n2)n1` (centres unmarked) [IN10880-033-P1], the “SC100 (μM)” value was “++ (++ means 200 nM-1000 nM)”. For `Cc1csc(-c2nc(NC3CCC(F)(F)CC3)cc(C(C)O)n2)n1` (centres unmarked) [IN10880-035-P1, 1-(6-((4,4-difluorocyclohexyl)amino)-2-(4-methylthiazol-2-yl)pyrimidin-4-yl) ethan-1-ol], the “SC100 (μM)” value was “++ (++ means 200 nM-1000 nM)”. With `Cc1ccn(-c2nc(NCC3CCCO3)cc(C(C)O)n2)n1` (centres unmarked) [IN10880-055-P1] the “SC100 (μM)” value was “+ (+ means >1 uM)”. `Cc1ccn(-c2nc(NC(C)C)cc(C(C)O)n2)n1` (centres unmarked) [IN10880-056-P1] was tested, and the “SC100 (μM)” value was “+ (+ means >1 uM)”. For `Cc1ccn(-c2nc(NCC3CCOC3)cc(C(C)O)n2)n1` (centres unmarked) [IN10880-058-P1], the “SC100 (μM)” value was “+ (+ means >1 uM)”. `Cc1ccn(-c2nc(NC3CCCCC3C)cc(C(C)O)n2)n1` (centres unmarked) [IN10880-059-P1] was tested, and the “SC100 (μM)” value was “+ (+ means >1 uM)”. In the case of `Cc1ccn(-c2nc(NC3CCCC(C(F)(F)F)C3)cc(C(C)O)n2)n1` (centres unmarked) [IN10880-062-P1], the “SC100 (μM)” value was “+ (+ means >1 uM)”. In the case of `Cc1ccn(-c2nc(C(C)O)cc(N(C)C3CCCCC3)n2)n1` (centres unmarked) [IN10880-064-P1], the “SC100 (μM)” value was “+ (+ means >1 uM)”. In the case of `Cc1ccn(-c2nc(NC(C)(C)C)cc(C(C)O)n2)n1` (centres unmarked) [IN10880-065-P1], the “SC100 (μM)” value was “+ (+ means >1 uM)”. For `Cc1csc(-c2nc(C(C)O)cc(N(C)C3CCCCC3)n2)n1` (centres unmarked) [IN10880-084-P1], the “SC100 (μM)” value was “+ (+ means >1 uM)”. With `Cc1csc(-c2nc(NC3CCCC(C(F)(F)F)C3)cc(C(C)O)n2)n1` (centres unmarked) [IN10880-085-P1] the “SC100 (μM)” value was “+ (+ means >1 uM)”. With `Cc1csc(-c2nc(NC3CCCCC3)cc(C(C)O)n2)n1` (centres unmarked) [IN10880-093-P1] the “SC100 (μM)” value was “++ (++ means 200 nM-1000 nM)”. With `Cc1csc(-c2nc(NC3CCC(F)(F)CC3)cc(N3CCC(N(C)C)CC3)n2)n1` [IN10881-020.P1] the “SC100 (μM)” value was “+++ (+++ means <200 nM)”. `Cc1csc(-c2nc(NC3CCC(F)(F)CC3)cc(N3CCCCC3)n2)n1` [IN10881-021.P1] was tested, and the “SC100 (μM)” value was “++ (++ means 200 nM-1000 nM)”. For `Cc1csc(-c2nc(NC3CCC(F)(F)CC3)cc(N3CCCC(O)C3)n2)n1` (centres unmarked) [IN10881-023-P2], the “SC100 (μM)” value was “++ (++ means 200 nM-1000 nM)”. In the case of `Cc1csc(-c2nc(NC3CCC(F)(F)CC3)cc(N3CCOC(CO)C3)n2)n1` (centres unmarked) [IN10881-025-P1], the “SC100 (μM)” value was “++ (++ means 200 nM-1000 nM)”. In the case of `Cc1csc(-c2nc(NC3CCC(F)(F)CC3)cc(N3CCOCC3CO)n2)n1` (centres unmarked) [IN10881-027-P1], the “SC100 (μM)” value was “++ (++ means 200 nM-1000 nM)”. For `CC(=O)c1cc(NC2CCC(F)(F)CC2)nc(-n2nc(C)cc2C)n1` [IN10881-040-P1, 1-(6-((4,4-difluorocyclohexyl)amino)-2-(3,5-dimethyl-1H-pyrazol-1-yl)pyrimidin-4-yl)ethan-1-one], the “SC100 (μM)” value was “+ (+ means >1 uM)”. `Cc1ccn(-c2nc(C(C)O)cc(N3CCCC4CCCCC43)n2)n1` (centres unmarked) [IN10881-054-P1] was tested, and the “SC100 (μM)” value was “+ (+ means >1 uM)”. `Cc1ccn(-c2nc(C(C)O)cc(N3CCCCCC3)n2)n1` (centres unmarked) [IN10881-058-P1] was tested, and the “SC100 (μM)” value was “+ (+ means >1 uM)”. For `Cc1ccn(-c2nc(C(C)O)cc(N(C)C3CCCCC3C)n2)n1` (centres unmarked) [IN10881-059-P1], the “SC100 (μM)” value was “+ (+ means >1 uM)”. With `Cc1ccn(-c2nc(NC3C(C)CCCC3C)cc(C(C)O)n2)n1` (centres unmarked) [IN10881-060-P1] the “SC100 (μM)” value was “+ (+ means >1 uM)”. `Cc1csc(-c2nc(NC3CCC(F)(F)CC3)cc(N(C)C3CC3)n2)n1` [IN10881-090-P1] was tested, and the “SC100 (μM)” value was “+ (+ means >1 uM)”. `CCN(CC)CC1CN(c2cc(NC3CCC(F)(F)CC3)nc(-c3nc(C)cs3)n2)CCO1` (centres unmarked) [IN10881-092-P1] was tested, and the “SC100 (μM)” value was “+++ (+++ means <200 nM)”. For `Cc1cc(C)n(-c2nc(NC3CCC(F)(F)CC3)nc(N3CCOCC3)n2)n1` [IN10881-098-P1, N-(4,4-difluorocyclohexyl)-4-(3,5-dimethyl-1H-pyrazol-1-yl)-6-morpholino-1,3,5-triazin-2-amine], the “SC100 (μM)” value was “+ (+ means >1 uM)”. In the case of `COCC1COCCN1c1cc(NC2CCC(F)(F)CC2)nc(-c2nc(C)cs2)n1` (centres unmarked) [IN10881-099-P1], the “SC100 (μM)” value was “+ (+ means >1 uM)”. In the case of `Cc1csc(-c2nc(NC3CCC(F)(F)CC3)cc(N3CCCC3)n2)n1` [IN10882-014-P1], the “SC100 (μM)” value was “+ (+ means >1 uM)”. With `Cc1csc(-c2nc(NC3CCC(F)(F)CC3)cc(N3CCC(CO)C3)n2)n1` (centres unmarked) [IN10882-020-P1] the “SC100 (μM)” value was “++ (++ means 200 nM-1000 nM)”. With `Cc1csc(-c2nc(NC3CCC(F)(F)CC3)cc(NC3COC3)n2)n1` [IN10882-040-P1] the “SC100 (μM)” value was “+ (+ means >1 uM)”. In the case of `Cc1csc(-c2nc(NC3CCC(F)(F)CC3)cc(N(C)C3COC3)n2)n1` [IN10882-043-P1], the “SC100 (μM)” value was “+ (+ means >1 uM)”. For `Cc1ccn(-c2nc(C(C)O)cc(N3CCCCC3)n2)n1` (centres unmarked) [IN10882-055-P1], the “SC100 (μM)” value was “+ (+ means >1 uM)”. For `Cc1ccn(-c2nc(NC(C)C)cc(N3CCOC(CO)C3)n2)n1` (centres unmarked) [IN10882-057-P1], the “SC100 (μM)” value was “+ (+ means >1 uM)”. With `Cc1ccn(-c2nc(N3CCCCCC3)cc(N3CCOC(CO)C3)n2)n1` (centres unmarked) [IN10882-068-P1] the “SC100 (μM)” value was “+ (+ means >1 uM)”. For `Cc1ccn(-c2nc(N3CCCCC3)cc(N3CCOC(CO)C3)n2)n1` (centres unmarked) [IN10882-072-P1, (4-(2-(3-methyl-1H-pyrazol-1-yl)-6-(piperidin-1-yl)pyrimidin-4-yl)morpholin-2-yl) methanol], the “SC100 (μM)” value was “+ (+ means >1 uM)”. For `Cc1ccn(-c2nc(NC(C)(C)C)cc(N3CCOC(CO)C3)n2)n1` (centres unmarked) [IN10882-083-P1], the “SC100 (μM)” value was “+ (+ means >1 uM)”. For `Cc1cc(C)n(-c2cc(NC3CCC(F)(F)CC3)cc(N3CCOCC3)c2)n1` [IN10963-024-P1, N-(4,4-difluorocyclohexyl)-3-(3,5-dimethyl-1H-pyrazol-1-yl)-5-morpholinoaniline], the “SC100 (μM)” value was “+ (+ means >1 uM)”. `Cc1cc(C)n(-c2nc(NC3CCC(F)CC3)cc(N3CCOCC3)n2)n1` (centres unmarked) [IN10963-049-P1] was tested, and the “SC100 (μM)” value was “++ (++ means 200 nM-1000 nM)”. `Cc1cc(C)n(-c2nc(NC3CCC(F)(F)CC3)cc(C(C)OC(C)C)n2)n1` (centres unmarked) [IN10963-068-P1, N-(4,4-difluorocyclohexyl)-2-(3,5-dimethyl-1H-pyrazol-1-yl)-6-(1-isopropoxyethyl)pyrimidin-4-amine] was tested, and the “SC100 (μM)” value was “+ (+ means >1 uM)”. `Cc1cc(C)n(-c2nc(CCO)cc(NC3CCC(F)(F)CC3)n2)n1` [IN10963-077-P1, 2-(6-((4,4-difluorocyclohexyl)amino)-2-(3,5-dimethyl-1H-pyrazol-1-yl)pyrimidin-4-yl) ethan-1-ol] was tested, and the “SC100 (μM)” value was “+ (+ means >1 uM)”. For `Cc1csc(-c2nc(NC3CCC(F)(F)CC3)cc(N3CCOC(COC(C)C)C3)n2)n1` (centres unmarked) [IN10964-007-P1], the “SC100 (μM)” value was “+++ (+++ means <200 nM)”. `Cc1cc(C)n(-c2nc(NC3CCC(F)(F)CC3)cc(N3CCOC(COC(C)C)C3)n2)n1` (centres unmarked) [IN10964-008-P1] was tested, and the “SC100 (μM)” value was “++ (++ means 200 nM-1000 nM)”. For `Cc1cc(C)n(-c2nc(NC3CCC(F)(F)CC3)cc(C(C)N(C)C)n2)n1` (centres unmarked) [IN10964-046-P1, N-(4,4-difluorocyclohexyl)-2-(3,5-dimethyl-1H-pyrazol-1-yl)-6-(1-(dimethylamino)ethyl)pyrimidin-4-amine], the “SC100 (μM)” value was “+ (+ means >1 uM)”. In the case of `Cc1cc(C)n(-c2nc(NC3CCC(F)(F)CC3)cc(N3CCOCC3COC(C)C)n2)n1` (centres unmarked) [IN10965-089-P1], the “SC100 (μM)” value was “++ (++ means 200 nM-1000 nM)”.
